{
  "source": "paper PMC11477289",
  "about": "“Low-Basicity 5-HT6 Receptor Ligands from the Group of Cyclic Arylguanidine Derivatives and Their Antiproliferative Activity Evaluation” (International Journal of Molecular Sciences, 2024)",
  "key": {"HSA and AGP (24:1)": {"system": "HSA and AGP (24:1)", "assay": "Plasma protein binding, TRANSIL XL PPB assay", "conditions": "human, TRANSIL XL PPB assay: HSA and AGP in a 24:1 ratio"}, "5-HT5A receptor": {"biological_target": "5-HT5A receptor (Homo sapiens, UniProt P47898)", "sequence (P47898 whole entry)": "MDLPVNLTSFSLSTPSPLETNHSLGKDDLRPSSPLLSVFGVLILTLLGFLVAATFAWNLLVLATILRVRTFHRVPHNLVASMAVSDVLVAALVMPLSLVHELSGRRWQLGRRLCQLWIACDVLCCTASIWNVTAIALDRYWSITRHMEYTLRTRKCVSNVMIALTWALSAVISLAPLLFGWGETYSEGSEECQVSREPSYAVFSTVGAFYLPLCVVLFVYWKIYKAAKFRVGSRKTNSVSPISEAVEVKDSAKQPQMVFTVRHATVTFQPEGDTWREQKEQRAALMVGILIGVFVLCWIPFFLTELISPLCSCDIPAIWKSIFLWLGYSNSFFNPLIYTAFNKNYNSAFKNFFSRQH", "assay": "[3H]-LSD radioligand binding assay, 5-HT5A"}, "CYP3A4": {"biological_target": "T1, CYP3A4 (Homo sapiens, UniProt P08684)", "T1 construct": "purchased Promega", "T1 sequence (P08684 whole entry)": "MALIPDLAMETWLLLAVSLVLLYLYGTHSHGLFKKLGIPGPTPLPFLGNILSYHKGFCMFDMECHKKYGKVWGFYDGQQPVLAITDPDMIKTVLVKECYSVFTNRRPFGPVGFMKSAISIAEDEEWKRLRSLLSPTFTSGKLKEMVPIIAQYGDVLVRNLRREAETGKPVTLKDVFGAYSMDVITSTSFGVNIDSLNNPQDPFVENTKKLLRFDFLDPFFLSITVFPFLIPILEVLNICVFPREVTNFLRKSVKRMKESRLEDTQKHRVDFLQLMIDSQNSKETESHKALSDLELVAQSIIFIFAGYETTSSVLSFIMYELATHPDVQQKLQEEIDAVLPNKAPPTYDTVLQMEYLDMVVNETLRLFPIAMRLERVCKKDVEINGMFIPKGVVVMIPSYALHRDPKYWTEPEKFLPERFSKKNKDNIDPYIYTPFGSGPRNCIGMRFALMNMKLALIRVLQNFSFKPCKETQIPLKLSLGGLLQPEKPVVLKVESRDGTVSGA", "assay": "CYP3A4 P450-Glo assay (drug–drug interactions)", "type": "biochemical", "conditions": "0.01–25 µM", "method": "The potential risk of drug–drug interactions (DDIs) was examined in luminescence-based CYP3A4 and CYP2D6 P450-Glo assays (Promega, Madison, WI, USA) (Figure 2A,B).\nThe influence on CYP3A4 and CYP2D6 activity by ligands was analyzed with luminescent CYP3A4 P450-Glo and CYP2D6 P450-Glo^TM (Madison, WI, USA). The compounds were tested in triplicate. The bioluminescence signal was measured with a microplate reader, Spark Cyto (Tecan, Männedorf, Switzerland), in the luminescence mode. Compounds were tested in triplicate in the range of 0.01–25 µM for both isoforms’ P450 cytochrome. KE and QD were used as the reference compounds for CYP3A4 and CYP2D6, respectively."}, "HEK293": {"system": "HEK293", "assay": "Cytotoxic activity on HEK293", "type": "cell-based", "conditions": "Homo sapiens", "from_the_text": "Table 6 Extended receptor affinity study, with functional tests and cytotoxic activity of selected compounds on HEK293. | column: HEK293 / IC50 [µM]"}},
  "data": [
    {"compound": "CC1NC(NS(=O)(=O)c2cccc3ccccc23)=Nc2cccc(Cl)c21", "note": "(centres unmarked) [PR 68, N -(5-chloro-4-methyl-3,4-dihydroquinazolin-2-yl)naphthalene-1-sulfonamide]", "values": [
      {"measurement": "Kd at 12 min, 20 µM", "setting": "HSA and AGP (24:1)", "result": 1400, "unit": "nM"},
      {"measurement": "fraction unbound at 12 min, 20 µM", "setting": "HSA and AGP (24:1)", "result": 0.002},
      {"measurement": "Ki", "setting": "5-HT5A receptor", "result": 1110, "unit": "nM"},
      {"measurement": "drug–drug interactions, CYP3A4 activity", "setting": "CYP3A4", "result": "should not exhibit drug–drug interactions"},
      {"measurement": "IC50", "setting": "HEK293", "result": 81800, "unit": "nM"}
    ]}
  ]
}
